Results from ChEMBL document CHEMBL5614413, “Design, synthesis and biological evaluation of amphiphilic benzopyran derivatives as potent antibacterial agents against multidrug-resistant bacteria” (Eur J Med Chem, 2024).
≈ marks a conversion by molar mass, not a printed value. Calls of active or inactive are those of the source. The calls are words filed in the database; no cut-off is given here.

Tests used:
Cell membrane [1] = assay: Induction of cytoplasmic membrane depolarization in methicillin-resistant Staphylococcus aureus ATCC 43300 assessed as increase in fluorescence intensity at 2 microg/ml by DiSC3(5) dye-based fluorescence assay; format: cell membranes; conditions: dose 2.0 µg/ml
Staphylococcus aureus [2] = assay: Antibacterial activity against methicillin-resistant Staphylococcus aureus ATCC 43300 infected in sepsis mouse model assessed as decrease in TNF-alpha level in blood at 5 to 10 mg/kg pre-infected with bacteria for 1 hrs followed by continuous compound administration at 12 hrs intervals for 2 days; format: functional, organism-based; conditions: dose 5-10 mg/kg, time 2.0 day
Staphylococcus aureus [3] = assay: Antibacterial activity against methicillin-resistant Staphylococcus aureus ATCC 43300 infected in sepsis mouse model assessed as reduction in number of surviving bacterial colonies in kidney at 5 mg/kg pre-infected with bacteria for 1 hrs followed by continuous compound administration at 12 hrs intervals for 2 days relative to control; format: functional; conditions: time 2 day
Staphylococcus aureus [4] = assay: Bactericidal activity against methicillin-resistant Staphylococcus aureus ATCC 43300 assessed as bacterial killing at 16 microg/ml measured after 8 hrs by time-kill kinetics analysis relative to control; format: functional; conditions: dose 16 µg/ml
Staphylococcus aureus [5] = assay: Selectivity ratio of MBC for bactericidal activity against methicillin-resistant Staphylococcus aureus ATCC 43300 in presence of 50% human serum to MBC for bactericidal activity against methicillin-resistant Staphylococcus aureus ATCC 43300; format: functional
Staphylococcus aureus [6] = assay: Bactericidal activity against methicillin-resistant Staphylococcus aureus ATCC 43300 in presence of 50% human blood by Mueller Hinton broth based assay; format: functional; conditions: ATCC 43300, Blood, time <= 6 hrs
Staphylococcus aureus [7] = assay: Bactericidal activity against methicillin-resistant Staphylococcus aureus ATCC 43300 assessed as reduction in bacterial growth; format: functional, organism-based
Staphylococcus aureus [8] = assay: Antibacterial activity against methicillin-resistant Staphylococcus aureus ATCC 43300 infected in sepsis mouse model assessed as reduction in number of surviving bacterial colonies in blood at 10 mg/kg pre-infected with bacteria for 1 hrs followed by continuous compound administration at 12 hrs intervals for 2 days relative to control; format: functional; conditions: time 2 day
[9] = Hemolytic activity in sheep RBC; format: toxicity, cell-based, Ovis aries, Erythrocyte; conditions: sheep red blood cells (erythrocytes)
Staphylococcus aureus [10] = assay: Bactericidal activity against methicillin-resistant Staphylococcus aureus ATCC 43300 assessed as log reduction in bacterial growth at 16 microg/ml measured after 4 hrs by time-kill kinetics analysis; format: functional; conditions: dose 16 µg/ml
Staphylococcus aureus [11] = assay: Antibacterial activity against erythromycin-susceptible Staphylococcus aureus ATCC 25923; format: functional
Staphylococcus aureus [12] = assay: Inhibition of biofilm formation in methicillin-resistant Staphylococcus aureus ATCC 43300 at 2 microg/ml relative to control; format: functional
Cell membrane [13] = assay: Induction of cytoplasmic membrane depolarization in methicillin-resistant Staphylococcus aureus ATCC 43300 assessed as fold increase in fluorescence intensity at 16 microg/ml measured within 20 min by DiSC3(5) dye-based fluorescence assay; format: cell membranes; conditions: dose 16.0 µg/ml
Staphylococcus aureus [14] = assay: Antibacterial activity against methicillin-resistant Staphylococcus aureus ATCC 43300 infected in sepsis mouse model assessed as reduction in bacterial load in liver at 10 mg/kg pre-infected with bacteria for 1 hrs followed by continuous compound administration at 12 hrs intervals for 2 days (reference value: 7.16 log10CFU/g); format: functional; conditions: time 2 day
[15] = Selectivity index, ratio of HC50 for hemolytic activity in sheep RBC to MIC for antibacterial activity against methicillin-resistant Staphylococcus aureus ATCC 43300; format: toxicity; conditions: sheep red blood cells (erythrocytes), read-out: Selectivity Index
Staphylococcus aureus [16] = assay: Antibacterial activity against methicillin-resistant Staphylococcus aureus ATCC 43300 infected in sepsis mouse model assessed as reduction in number of surviving bacterial colonies in spleen at 5 mg/kg pre-infected with bacteria for 1 hrs followed by continuous compound administration at 12 hrs intervals for 2 days relative to control; format: functional; conditions: time 2 day
Staphylococcus aureus [17] = assay: Antibacterial activity against methicillin-resistant Staphylococcus aureus ATCC 43300 infected in sepsis mouse model assessed as reduction in bacterial load in blood at 10 mg/kg pre-infected with bacteria for 1 hrs followed by continuous compound administration at 12 hrs intervals for 2 days (reference value: 3.69 log10CFU/ml); format: functional; conditions: time 2 day
Staphylococcus aureus [18] = assay: Disruption of preformed biofilm in methicillin-resistant Staphylococcus aureus ATCC 43300 assessed as eradication of biofilm at 8 microg/ml by crystal violet staining based analysis relative to control; format: functional; conditions: dose 8 µg/ml
Cell membrane [19] = assay: Disruption of cell membrane integrity in methicillin-resistant Staphylococcus aureus ATCC 43300 assessed as appearance of blue fluorescence by DAPI/PI staining based microscopic analysis; format: cell membranes
Staphylococcus aureus [20] = assay: Antibacterial activity against methicillin-resistant Staphylococcus aureus ATCC 43300 infected in sepsis mouse model assessed as reduction in bacterial load in spleen at 10 mg/kg pre-infected with bacteria for 1 hrs followed by continuous compound administration at 12 hrs intervals for 2 days (reference value: 7.45 log10CFU/g); format: functional; conditions: time 2 day
Acinetobacter baumannii = assay: Antibacterial activity against Acinetobacter baumannii ATCC 19606; format: functional
Cell membrane [21] = assay: Disruption of cell membrane in methicilin-resistant Staphylococcus aureus ATCC 43300 assessed as appearance of collapsed cell membrane by scanning electron microscopic analysis; format: cell membranes
Cell membrane [22] = assay: Induction of cell membrane disruption in methicillin-resistant Staphylococcus aureus ATCC 43300 assessed as increase in DNA leakage; format: cell membranes
Staphylococcus aureus [23] = assay: Antibacterial activity against methicillin-resistant Staphylococcus aureus ATCC 43300 infected in sepsis mouse model assessed as reduction in bacterial load in spleen at 5 mg/kg pre-infected with bacteria for 1 hrs followed by continuous compound administration at 12 hrs intervals for 2 days (reference value: 7.45 log10CFU/g); format: functional; conditions: time 2 day
Cell membrane [24] = assay: Induction of cytoplasmic membrane depolarization in methicillin-resistant Staphylococcus aureus ATCC 43300 assessed as increase in fluorescence intensity by DiSC3(5) dye-based fluorescence assay; format: cell membranes
Staphylococcus aureus [25] = assay: Antibacterial activity against methicillin-resistant Staphylococcus aureus ATCC 43300; format: functional
Staphylococcus aureus [26] = assay: Inhibition of biofilm formation in methicillin-resistant Staphylococcus aureus ATCC 43300 at 16 microg/ml relative to control; format: functional
Staphylococcus aureus [27] = assay: Selectivity ratio of MBC for bactericidal activity against methicillin-resistant Staphylococcus aureus ATCC 43300 preincubated with 50% human plasma upto 6 hrs to MBC for bactericidal activity against methicillin-resistant Staphylococcus aureus ATCC 43300; format: functional
Staphylococcus aureus [28] = assay: Antibacterial activity against methicillin-resistant Staphylococcus aureus ATCC 43300 infected in sepsis mouse model assessed as reduction in pathological damages in liver at 5 to 10 mg/kg pre-infected with bacteria for 1 hrs followed by continuous compound administration at 12 hrs intervals for 2 days by H and E staining based analysis; format: functional, organism-based; conditions: dose 5-10 mg/kg, time 2.0 day
Escherichia coli = assay: Antibacterial activity against penicillin-susceptible Escherichia coli ATCC 25922; format: functional
Cell membrane [29] = assay: Disruption of cell membrane integrity in methicillin-resistant Staphylococcus aureus ATCC 43300 assessed as appearance of red fluorescence by DAPI/PI staning based microscopic analysis; format: cell membranes
Staphylococcus aureus [30] = assay: Bactericidal activity against methicillin-resistant Staphylococcus aureus ATCC 43300 in presence of 50% human plasma by Mueller Hinton broth based assay; format: functional

CCCCN(CCCC)CCCNCCCOc1c(C(C)=O)ccc2c1C=CC(C)(CCC=C(C)C)O2 (configuration not stated)
Activity (Cell membrane [1]): inactive
Activity (Staphylococcus aureus [2]): Active
Activity (Staphylococcus aureus [3]): 99.2%
Activity (Staphylococcus aureus [4]): 100%
selectivity ratio (Staphylococcus aureus [5]): 2
MBC (Staphylococcus aureus [6]): 32 µg/mL
Activity (Staphylococcus aureus [7]): Dose-Dependent Effect
Activity (Staphylococcus aureus [8]): 95.9%
HC50 [9]: 131 µg/mL
log(activity) (Staphylococcus aureus [10]): 8.35
MIC (Staphylococcus aureus [11]): 2 µg/mL (≈ 3.9 µM)
inhibition at 2 µg/mL (Staphylococcus aureus [12]): 8.46%
fold change (FC) (Cell membrane [13]): 15
Activity (Staphylococcus aureus [14]): 2.69 log10CFU/g
selectivity ratio [15]: 65.6
Activity (Staphylococcus aureus [16]): 99%
Activity (Staphylococcus aureus [17]): 1.46 log10CFU/ml
Activity (Staphylococcus aureus [18]): 26.69%
Activity (Cell membrane [19]): Active
Activity (Staphylococcus aureus [20]): 2.24 log10CFU/g
MIC (Acinetobacter baumannii): 2 µg/mL (≈ 3.9 µM)
Activity (Cell membrane [21]): Active
Activity (Cell membrane [22]): Active
Activity (Staphylococcus aureus [23]): 2 log10CFU/g
Activity (Cell membrane [24]): Dose-Dependent Effect
MIC (Staphylococcus aureus [25]): 2 µg/mL (≈ 3.9 µM)
inhibition at 16 µg/mL (Staphylococcus aureus [26]): > 92%
selectivity ratio (Staphylococcus aureus [27]): <2
Activity (Staphylococcus aureus [28]): Active
MIC (Escherichia coli): 4 µg/mL (≈ 7.8 µM)
Activity (Cell membrane [29]): Active
MBC (Staphylococcus aureus [30]): 16 µg/mL
